The series is described as follows: activity coefficient (dimensionless); of the first substance listed, at infinite dilution; xn = mol fraction of the nth substance listed. The settings on record: 101 kPa, Liquid, Chromatography, x1 = 0.

± gives the expanded uncertainty stated by the source.

With `CC(=O)C(C)C` [3-methyl-2-butanone] + CCOS(=O)(=O)[O-].CC[n+]1cccc(C)c1, the activity coefficient was 4.51 ± 0.21 (333.2 K); 4.62 ± 0.21 (343.15 K); 4.73 ± 0.22 (353.09 K); 4.79 ± 0.22 (363.06 K); 4.95 ± 0.23 (372.99 K).

In the case of `CC(=O)CC(C)C` [4-methylpentan-2-one] + CCOS(=O)(=O)[O-].CC[n+]1cccc(C)c1, the activity coefficient came out at 6.97 ± 0.32 (333.2 K); 6.99 ± 0.32 (343.15 K); 7.03 ± 0.32 (353.08 K); 7.05 ± 0.32 (363.06 K); 7.12 ± 0.33 (372.99 K).

In the case of `CC(C)=O` [acetone] + CCOS(=O)(=O)[O-].CC[n+]1cccc(C)c1, the activity coefficient by setting is: (323.24 K) 1.78 ± 0.08; (333.19 K) 1.8 ± 0.08; (343.16 K) 1.84 ± 0.08; (353.11 K) 1.88 ± 0.08; (363.08 K) 1.92 ± 0.08; (372.99 K) 1.98 ± 0.09.

For `CCCCO` [butan-1-ol] + CCOS(=O)(=O)[O-].CC[n+]1cccc(C)c1, the activity coefficient (353.1 K) was 1.13 ± 0.03, the activity coefficient (363.06 K) worked out at 1.1 ± 0.03 and the activity coefficient (373 K) came to 1.08 ± 0.03.

Consider `CCC(C)O` (stereo not given) [butan-2-ol] + CCOS(=O)(=O)[O-].CC[n+]1cccc(C)c1, for which the activity coefficient by setting is: (333.19 K) 1.27 ± 0.04; (343.14 K) 1.25 ± 0.04; (353.1 K) 1.24 ± 0.04; (363.05 K) 1.23 ± 0.04; (373 K) 1.23 ± 0.04.

In the case of `CCC(C)=O` [butanone] + CCOS(=O)(=O)[O-].CC[n+]1cccc(C)c1, the activity coefficient was determined as 2.7 ± 0.12 (323.25 K); 2.74 ± 0.12 (333.2 K); 2.78 ± 0.13 (343.16 K); 2.84 ± 0.13 (353.1 K); 2.88 ± 0.13 (363.07 K); 2.95 ± 0.13 (372.99 K).

Consider `CCO` [ethanol] + CCOS(=O)(=O)[O-].CC[n+]1cccc(C)c1, for which the activity coefficient reads like this: (333.18 K) 0.6 ± 0.03; (343.13 K) 0.59 ± 0.03; (353.1 K) 0.58 ± 0.03; (363.09 K) 0.58 ± 0.03; (373.01 K) 0.57 ± 0.03.

Take `CO` [methanol] + CCOS(=O)(=O)[O-].CC[n+]1cccc(C)c1: the activity coefficient is, setting by setting: (323.26 K) 0.32 ± 0.04; (333.2 K) 0.33 ± 0.04; (343.15 K) 0.33 ± 0.04; (353.11 K) 0.33 ± 0.04; (363.07 K) 0.33 ± 0.04; (373 K) 0.33 ± 0.04.

Turning to `CCCCCO` [pentan-1-ol] + CCOS(=O)(=O)[O-].CC[n+]1cccc(C)c1, the activity coefficient by setting is: (353.09 K) 1.66 ± 0.07; (363.05 K) 1.59 ± 0.06; (373.01 K) 1.52 ± 0.06.

Consider `CCCC(C)=O` [pentan-2-one] + CCOS(=O)(=O)[O-].CC[n+]1cccc(C)c1, for which the activity coefficient by setting is: (333.2 K) 4.35 ± 0.2; (343.15 K) 4.38 ± 0.2; (353.12 K) 4.44 ± 0.2; (363.05 K) 4.46 ± 0.2; (372.99 K) 4.52 ± 0.21.

For `CCCO` [propan-1-ol] + CCOS(=O)(=O)[O-].CC[n+]1cccc(C)c1, the activity coefficient is, setting by setting: (333.18 K) 0.81 ± 0.03; (343.13 K) 0.8 ± 0.03; (353.1 K) 0.8 ± 0.03; (363.06 K) 0.79 ± 0.03; (373 K) 0.78 ± 0.03.

In the case of `CC(C)O` [propan-2-ol] + CCOS(=O)(=O)[O-].CC[n+]1cccc(C)c1, the activity coefficient runs as follows: (323.24 K) 1 ± 0.03; (333.19 K) 0.97 ± 0.03; (343.14 K) 0.96 ± 0.03; (353.09 K) 0.94 ± 0.03; (363.06 K) 0.93 ± 0.03; (373 K) 0.92 ± 0.03.

The values are drawn from the NIST ThermoML archive (doi:10.1016/j.fluid.2015.09.003).
